Reference: US20260125346A1, “Isoquinolinone Derivatives and 4H-Quinolizinone Derivatives and Pharmaceutical Compositions Thereof for the Treatment of Disease” (BeOne Medicines I GmbH, priority 2023, published 2026)

What was measured:
WT cell line SK-BR-3 = assay: Cell Proliferation Assay (CellTiter-Glo), SK-BR-3; assay type: cell-based; conditions: Homo sapiens, 72 h; SK-BR-3, 3 days treatment
Description: The SK-BR-3 (ATCC, HTB-30) cell line was obtained from the American Type Culture Collection. Cells were maintained in McCoy' 5A medium (Gibco, REF #16600108) supplemented with 10% Fetal Bovine Serum. Cultures were maintained in a humidified incubator at 37° C. under 5% CO2/95% air.
(§1) Cell Proliferation Assay. PI3Kα H1047R mutated cell line T-47D cells and WT cell line SK-BR-3 were seeded at a density of 3×10^3 cells per well in 96 well plate (Xinyou Biotechnology, 062096) in 95 μL of culture medium, overnight. Compounds dissolved in 10 mM stock solutions in DMSO were serially diluted 1:3 in DMSO to generate a 9-point dilution series and plated using an INTEGRA ASSIST Plus pipetting robot. A 20× intermediate compound dilution plate in RPMI1640 medium (200 M starting compound concentration in 2% DMSO) was then prepared. Five μL of intermediate serially diluted compounds were added to the cell plate to final concentrations ranging from […] to 1 nM in 0.1% DMSO. 0.1% DMSO alone was used to establish the maximum signal and medium without cells was for minimum signal. After 3 days treatment, equilibrated the plate and its contents at room temperature for approximately 30 minutes. Added 30 μL CellTiter-Glo® Reagent (Promega, REF #G7571) to each well. Then mixed contents for 5 min on plate shaker to induce cell lysis. Incubated at room temperature for 10 minutes to stabilize luminescent signal. The plates were read on PHERAstar FSX Microplate reader using standard luminescence settings.
(§2) Relative IC50 values were determined using luminescence units by calculating percent inhibition with respect to the in-plate “MIN” (medium only) and “MAX” (0.1% DMSO) controls. The data were analyzed using a 4-parameter nonlinear logistic equation (four-parameter logistic concentration-response curve): Y=bottom+[(top−bottom)/1+(X/IC50) slope] • where Y=% inhibition, X=concentration of inhibitor, bottom=minimum value of y attained by curve-fit, top=maximum value of y attained by curve-fit and slope=steepness of curve at the IC50.

[1] = target: PI3Kα (p110/p85) kinase (wild type, "WT") (Homo sapiens, UniProt P42336); assay: PI3Kα (p110/p85) kinase ADP-Glo Assay; assay type: biochemical; conditions: 25 uM ATP
Chain of PI3Kα (p110/p85) kinase (wild type, "WT") (P42336 whole entry): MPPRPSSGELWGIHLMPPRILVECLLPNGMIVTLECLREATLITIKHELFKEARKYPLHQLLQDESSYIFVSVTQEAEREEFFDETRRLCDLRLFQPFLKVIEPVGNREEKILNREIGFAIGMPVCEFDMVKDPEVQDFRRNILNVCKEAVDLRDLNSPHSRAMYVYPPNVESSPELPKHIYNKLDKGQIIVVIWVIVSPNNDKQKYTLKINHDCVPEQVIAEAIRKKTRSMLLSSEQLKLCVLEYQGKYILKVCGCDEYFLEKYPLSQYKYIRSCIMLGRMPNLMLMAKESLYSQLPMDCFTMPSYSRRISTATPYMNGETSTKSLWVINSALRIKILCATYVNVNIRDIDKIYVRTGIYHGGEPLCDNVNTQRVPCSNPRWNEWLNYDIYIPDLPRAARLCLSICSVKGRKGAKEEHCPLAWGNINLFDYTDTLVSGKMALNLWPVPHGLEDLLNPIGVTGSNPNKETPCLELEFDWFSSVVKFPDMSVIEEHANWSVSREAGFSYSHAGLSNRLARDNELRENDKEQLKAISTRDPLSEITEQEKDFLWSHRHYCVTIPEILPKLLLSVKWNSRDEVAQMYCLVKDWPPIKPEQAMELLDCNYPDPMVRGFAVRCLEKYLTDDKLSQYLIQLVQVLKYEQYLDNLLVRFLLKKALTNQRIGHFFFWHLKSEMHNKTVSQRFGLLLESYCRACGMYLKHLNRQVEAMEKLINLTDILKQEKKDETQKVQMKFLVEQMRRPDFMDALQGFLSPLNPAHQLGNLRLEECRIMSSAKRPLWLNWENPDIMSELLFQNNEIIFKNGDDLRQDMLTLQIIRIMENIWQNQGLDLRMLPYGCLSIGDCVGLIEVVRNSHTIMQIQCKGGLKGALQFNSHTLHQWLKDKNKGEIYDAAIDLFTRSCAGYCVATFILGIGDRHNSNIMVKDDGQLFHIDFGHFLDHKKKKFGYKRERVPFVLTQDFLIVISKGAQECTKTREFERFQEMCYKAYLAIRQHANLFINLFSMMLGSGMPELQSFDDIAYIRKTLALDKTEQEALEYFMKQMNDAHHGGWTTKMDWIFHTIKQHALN
Chain of PI3Kα (p110/p85) kinase (wild type, "WT") (P27986 whole entry partner): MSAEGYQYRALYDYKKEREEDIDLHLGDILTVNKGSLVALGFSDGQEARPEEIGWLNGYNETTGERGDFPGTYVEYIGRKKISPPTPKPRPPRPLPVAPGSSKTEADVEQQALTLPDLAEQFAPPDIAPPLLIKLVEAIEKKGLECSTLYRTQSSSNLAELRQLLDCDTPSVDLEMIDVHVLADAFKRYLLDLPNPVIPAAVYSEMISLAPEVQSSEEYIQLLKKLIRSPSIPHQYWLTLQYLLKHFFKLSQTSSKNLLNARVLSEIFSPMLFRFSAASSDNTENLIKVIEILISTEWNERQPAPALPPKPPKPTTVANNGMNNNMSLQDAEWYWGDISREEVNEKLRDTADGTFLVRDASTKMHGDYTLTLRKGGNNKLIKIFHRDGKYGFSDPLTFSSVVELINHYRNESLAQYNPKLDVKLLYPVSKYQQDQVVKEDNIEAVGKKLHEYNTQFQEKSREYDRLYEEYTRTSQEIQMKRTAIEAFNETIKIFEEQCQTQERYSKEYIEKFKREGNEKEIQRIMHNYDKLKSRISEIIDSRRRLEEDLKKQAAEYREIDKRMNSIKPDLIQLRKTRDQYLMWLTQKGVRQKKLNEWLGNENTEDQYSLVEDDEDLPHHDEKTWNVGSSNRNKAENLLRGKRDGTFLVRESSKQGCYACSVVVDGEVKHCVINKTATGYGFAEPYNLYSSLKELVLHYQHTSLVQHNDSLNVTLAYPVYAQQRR
How it was run: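 Wild-type PI3Kα p110/p85 preincubated 30 min at RT with PI(4,5)P2:PS substrate ([…]) and compound ([…]) in HEPES pH7.5 buffer with MgCl2, DTT and BSA; reaction started with 25 µM ATP for 120 min at RT. ADP measured by ADP-Glo luminescence; IC50 from four-parameter logistic fit.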

[2] = tested on: PI3Kα H1047R mutated cell line T-47D cells; assay: Cell Proliferation Assay (CellTiter-Glo), T-47D; assay type: cell-based; conditions: for IC50: Homo sapiens, T47D, 72 h, T-47D, 3 days treatment; for Selectivity: SK-BR-3/T-47D (cell proliferation): cell proliferation IC50 ratio
Description: Cell Culture Maintenance. The T-47D (ATCC, HTB-133) cell line was obtained from the American Type Culture Collection. Cells were maintained in RPMI1640 medium (Gibco, REF #22400105) supplemented with 10% Fetal Bovine Serum (Gibco, REF #10091148). Cultures were maintained in a humidified incubator at 37° C. under 5% CO2/95% air.
as §1, §2

[3] = target: PI3Kα (p110[H1047R]/p85) kinase (Homo sapiens, UniProt P42336, H1047R); assay: PI3Kα (p110[H1047R]/p85) kinase ADP-Glo Assay; assay type: biochemical; conditions: 25 uM ATP; for selectivity: WT/H1047R: ADP-Glo Assay IC50 ratio
Chain of PI3Kα (p110[H1047R]/p85) kinase (P42336 whole entry H1047R): as the sequence (P42336 whole entry) above, with H1047R counted along it
Chain of PI3Kα (p110[H1047R]/p85) kinase (P27986 whole entry partner): as the sequence (P27986 whole entry partner) above
How it was run: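 PI3Kα H1047R/p85 pre-incubated 30 min at room temperature with PI(4,5)P2:PS substrate ([…]) and compound ([…]) in HEPES pH 7.5 buffer with MgCl2; ATP ([…]) then added for 120 min. ADP quantified by ADP-Glo luminescence; IC50 from four-parameter logistic fit.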

Row | IC50 (WT cell line SK-BR-3) | IC50 [1] | IC50 [2] | IC50 [3] | selectivity: WT/H1047R [3] | Structure (SMILES) | Selectivity: SK-BR-3/T-47D (cell proliferation) [2]
1 | > 10000 nM | 9990 nM | 351 nM | 336 nM | 29.7 | COc1ncc(-c2cc3c(C(C)Nc4ccccc4C(=O)O)cc(C)cc3c(=O)n2C)cc1F (stereo not drawn) [Example 58, 2-((1-(3-(5-fluoro-6-methoxypyridin-3-yl)-2,7-dimethyl-1-oxo-1,2-dihydroisoquinolin-5-yl)ethyl)amino)benzoic acid] | >29
2 | > 10000 nM | 9450 nM | 706 nM | 375 nM | 25.2 | CC#Cc1ccc(-c2cc3c(C(C)Nc4ccccc4C(=O)O)cc(C)cc3c(=O)n2C)cc1 (stereo not drawn) [Example 52, 2-((1-(2,7-dimethyl-1-oxo-3-(4-(prop-1-yn-1-yl)phenyl)-1,2-dihydroisoquinolin-5-yl)ethyl)amino)benzoic acid] | >14
3 | > 10000 nM | 4730 nM | 118 nM | 230 nM | 20.6 | Cc1cc(C(C)Nc2ccccc2C(=O)O)c2cc(-c3ccc(C4(O)CC4)cc3)n(C)c(=O)c2c1 (stereo not drawn) [Example 62, 2-((1-(3-(4-(1-hydroxycyclopropyl)phenyl)-2,7-dimethyl-1-oxo-1,2-dihydroisoquinolin-5-yl)ethyl)amino)benzoic acid] | >85
4 | > 10000 nM | 1750 nM | 695 nM | 152 nM | 11.5 | Cc1cc(C(C)Nc2ccccc2C(=O)O)c2cc(C#Cc3ccn(C)n3)n(C)c(=O)c2c1 (stereo not drawn) [Example 88, 2-((1-(2,7-dimethyl-3-((1-methyl-1H-pyrazol-3-yl)ethynyl)-1-oxo-1,2-dihydroisoquinolin-5-yl)ethyl)amino)benzoic acid] | >14
5 | > 10000 nM | 9810 nM | 216 nM | 267 nM | 36.7 | Cc1cc(C(C)Nc2ccccc2C(=O)O)c2cc(-c3cncc(F)c3)n(C)c(=O)c2c1 (stereo not drawn) [Example 38, 2-((1-(3-(5-fluoropyridin-3-yl)-2,7-dimethyl-1-oxo-1,2-dihydroisoquinolin-5-yl)ethyl)amino)benzoic acid] | >46

More lines, now with the values behind:

Row | Structure (SMILES) | IC50 (WT cell line SK-BR-3) | IC50 [1] | IC50 [2] | IC50 [3] | selectivity: WT/H1047R [3] | Selectivity: SK-BR-3/T-47D (cell proliferation) [2]
6 | Cc1cc(C(C)Nc2cccnc2C(=O)O)c2cc(-c3ccc(F)cc3)n(C)c(=O)c2c1 (stereo not drawn) [Example 33, 3-((1-(3-(4-fluorophenyl)-2,7-dimethyl-1-oxo-1,2-dihydroisoquinolin-5-yl)ethyl)amino)picolinic acid] | > 10000 nM | 55100 nM | 1590 nM | 1050 nM | 52.6 | >6.28
7 | Cc1cc(C(C)Nc2ccccc2C(=O)O)c2cc(-c3cccc(F)c3F)n(C)c(=O)c2c1 (stereo not drawn) [Example 12, 2-((1-(3-(2,3-difluorophenyl)-2,7-dimethyl-1-oxo-1,2-dihydroisoquinolin-5-yl)ethyl)amino)benzoic acid] | > 10000 nM | 6690 nM | 237 nM | 175 nM | 38.2 | >42
8 | Cc1cc(C(C)Nc2ccccc2C(=O)O)c2cc(-c3ccccc3F)n(C)c(=O)c2c1 (stereo not drawn) [Example 6, 2-((1-(3-(2-fluorophenyl)-2,7-dimethyl-1-oxo-1,2-dihydroisoquinolin-5-yl)ethyl)amino)benzoic acid] | > 10000 nM | 2880 nM | 326 nM | 162 nM | 17.8 | >31
9 | Cc1cc(C(C)Nc2ccccc2C(=O)O)c2cc(-c3cc(F)cc(F)c3)n(C)c(=O)c2c1 (stereo not drawn) [Example 10, 2-((1-(3-(3,5-difluorophenyl)-2,7-dimethyl-1-oxo-1,2-dihydroisoquinolin-5-yl)ethyl)amino)benzoic acid] | > 10000 nM | 8080 nM | 128 nM | 224 nM | 36.1 | >78
